How the values were obtained:
CDK9/cyclin T = target: T1, CDK9/cyclin T (Homo sapiens, UniProt P50750); assay: Recombinant protein kinase assay, CDK9/cyclin T; format: biochemical; settings: 15 µM ATP
T1 construct: made in house; host or cells: insect cells

CLK1 = CLK1 (Mus musculus, UniProt P22518); assay: Recombinant protein kinase assay, CLK1; format: biochemical
CLK3 = CLK3 (Mus musculus, UniProt O35492); assay: Recombinant protein kinase assay, CLK3; format: biochemical
[1] = Pharmacokinetics and brain biodistribution of L41 after acute i.p. injection; format: in vivo; settings: mouse, ip
Procedure: To investigate the importance of DYRK1A in cognitive deficits shown by transgenic mouse models of DS, we used a series of low molecular weight pharmacological inhibitors, collectively known as leucettines ([Debdab et al., 2011]; [Tahtouh et al., 2012]; T. Tahtouh, unpublished).
re S1. Pharmacokinetics and brain biodistribution of L41 following acute intra-
zoom on the first 8 hours.
Disease Models & Mechanisms • Supplementary information

Tg(Dyrk1a) mice [2] = assay: Novel object recognition (NOR) test in Tg(Dyrk1a) mice; format: in vivo, mouse; settings: for Recovery in NOR test: 20 mg/kg daily i.p., 24 h retention delay
Tg(Dyrk1a) mice [3] = assay: Y-maze working memory in Tg(Dyrk1a) mice; format: in vivo, mouse; settings: L41-treated Tg(Dyrk1a) mice
Tg(Dyrk1a) mice [4] = assay: Place object location (POR) spatial memory in Tg(Dyrk1a) mice; format: in vivo, mouse; settings: L41-treated Tg(Dyrk1a) mice
DYRK1A [5] = target: T2, DYRK1A (Mus musculus, UniProt Q61214); assay: Brain DYRK1A catalytic activity after treatment, Tg(Dyrk1a) mice; format: in vivo
T2 construct: DYRK1A was purified from brain extracts by immunoprecipitation; from tissue; host or cells: mouse brain (wt, Tg(Dyrk1a), Ts65Dn)
Procedure: Protein kinase assays to measure the catalytic activity of DYRK1A in the brains of the animals treated with or without drugs were performed as follows: frozen half brains were homogenized in lysis buffer (1.2 ml/half brain) using Precellys® homogenizer tubes. After centrifugation at 2800 g for 2×15 s, 1 mg brain extract was incubated with 2 µg DYRK1A (H00001859 M01, Interchim) or GSK3-β (MBS8508391, Emelca Bioscience, France) antibodies at 4°C for 1 h under gentle rotation. Then, 20 µl protein G agarose beads (Thermo Fisher Scientific, France), previously washed three times with bead buffer (50 mM Tris pH 7.4, 5 mM NaF, 250 mM NaCl, 5 mM EDTA, 5 mM EGTA, 0.1% Nonidet P-40 and protease inhibitor cocktail from Roche, France), were added to the mix and gently rotated at 4°C for 30 min. After a 1 min spin at 10,000 g and removal of the supernatant, the pelleted immune complexes were washed three times with bead buffer, and a last time with Buffer C (60 mM β-glycerophosphate, 30 mM p-nitrophenolphosphate, 25 mM Mops pH 7.2, 5 mM EGTA, 15 mM MgCl2, 2 mM dithiothreitol, 0.1 mM sodium orthovanadate, 1 mM phenylphosphate, protease inhibitor cocktail). DYRK1A or GSK-3 immobilized on beads were assayed in buffer C as described in the Supplementary Materials and Methods with Woodtide ([…]) (1.5 µg/assay) or GSK3-tide ([…]pSED-EEE, where pS stands for phosphorylated serine) as substrates.

DYRK1A [6] = assay: Brain DYRK1A protein expression by western blotting after treatment; format: in vivo, mouse; settings: 19 days daily i.p., transgenic and wt brains
Procedure: Brains were obtained from mice and snap-frozen until further use. Then tissues were weighed, homogenized and sonicated in 1 ml lysis buffer (60 mM β-glycerophosphate, 15 mM p-nitrophenylphosphate, 25 mM Mops pH 7.2, 15 mM EGTA, 15 mM MgCl2, 2 mM dithiothreitol, 1 mM sodium orthovanadate, 1 mM sodium fluoride, 1 mM phenylphosphate disodium and protease inhibitor cocktail) per g of material. Homogenates were centrifuged for 15 min at 17,000 g and 4°C. The supernatant was recovered and assayed for protein content (Bio-Rad, France). The proteins were separated by 10% NuPAGE pre-cast Bis-Tris polyacrylamide mini gel electrophoresis (Invitrogen, France) with MOPS-SDS running buffer. Proteins were transferred to 0.45-µm nitrocellulose filters (Schleicher and Schuell, Germany). They were blocked with 5% low-fat milk in Tris-buffered […]/Tween 20, and incubated overnight at 4°C with antibodies. Anti-DYRK1A (H00001859-M01; 1:1000) and anti-GSK-3α/β (KAM-ST002E; 1:1000) were obtained from Interchim (France) and Stressgen (France), respectively. Appropriate secondary antibodies conjugated to horseradish peroxidase (Bio-Rad) were added to visualize the proteins using the enhanced chemiluminescence reaction (ECL, Amersham, France).

CLK1, sequence (P22518 whole entry): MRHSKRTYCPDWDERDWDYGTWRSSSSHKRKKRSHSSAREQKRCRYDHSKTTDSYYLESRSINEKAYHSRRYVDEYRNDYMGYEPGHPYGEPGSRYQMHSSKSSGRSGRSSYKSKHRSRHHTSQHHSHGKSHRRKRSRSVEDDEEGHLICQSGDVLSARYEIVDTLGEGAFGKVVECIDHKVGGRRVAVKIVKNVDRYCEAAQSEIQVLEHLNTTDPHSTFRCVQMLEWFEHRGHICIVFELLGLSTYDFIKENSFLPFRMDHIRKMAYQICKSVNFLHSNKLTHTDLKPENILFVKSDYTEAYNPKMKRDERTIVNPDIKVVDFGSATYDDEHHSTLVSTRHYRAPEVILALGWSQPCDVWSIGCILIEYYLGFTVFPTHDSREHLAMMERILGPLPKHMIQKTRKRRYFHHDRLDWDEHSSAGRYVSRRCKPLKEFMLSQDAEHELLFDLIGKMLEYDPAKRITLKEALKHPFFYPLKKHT
T1 sequence (P50750 whole entry): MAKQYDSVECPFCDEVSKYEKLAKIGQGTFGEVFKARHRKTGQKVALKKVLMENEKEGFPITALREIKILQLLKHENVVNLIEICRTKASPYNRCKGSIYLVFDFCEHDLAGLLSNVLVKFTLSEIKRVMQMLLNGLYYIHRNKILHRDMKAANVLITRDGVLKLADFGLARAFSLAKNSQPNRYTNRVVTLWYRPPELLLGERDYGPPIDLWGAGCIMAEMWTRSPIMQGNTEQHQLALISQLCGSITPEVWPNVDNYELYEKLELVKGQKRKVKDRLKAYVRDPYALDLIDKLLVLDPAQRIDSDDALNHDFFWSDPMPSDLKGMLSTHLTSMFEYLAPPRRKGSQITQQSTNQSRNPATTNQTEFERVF
T1 sequence (O60563 whole entry partner): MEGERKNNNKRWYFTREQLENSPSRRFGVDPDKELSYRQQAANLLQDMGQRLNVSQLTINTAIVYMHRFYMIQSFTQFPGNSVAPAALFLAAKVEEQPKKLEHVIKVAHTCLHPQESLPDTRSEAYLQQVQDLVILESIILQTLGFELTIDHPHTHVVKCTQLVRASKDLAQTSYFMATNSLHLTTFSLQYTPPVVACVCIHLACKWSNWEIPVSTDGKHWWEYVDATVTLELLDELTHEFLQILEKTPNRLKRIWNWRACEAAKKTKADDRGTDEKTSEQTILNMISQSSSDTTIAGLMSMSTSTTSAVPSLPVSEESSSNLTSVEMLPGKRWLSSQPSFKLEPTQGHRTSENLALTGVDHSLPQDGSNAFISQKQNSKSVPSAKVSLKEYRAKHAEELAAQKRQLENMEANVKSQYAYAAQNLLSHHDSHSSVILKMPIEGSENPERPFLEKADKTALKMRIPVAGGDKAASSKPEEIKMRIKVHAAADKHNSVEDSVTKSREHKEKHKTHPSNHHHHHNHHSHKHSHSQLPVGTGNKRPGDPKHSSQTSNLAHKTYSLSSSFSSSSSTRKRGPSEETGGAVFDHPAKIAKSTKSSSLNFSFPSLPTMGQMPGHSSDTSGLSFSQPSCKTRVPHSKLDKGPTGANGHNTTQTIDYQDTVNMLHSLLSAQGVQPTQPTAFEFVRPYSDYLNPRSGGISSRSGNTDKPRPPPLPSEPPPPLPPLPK
CLK3, sequence (O35492 whole entry): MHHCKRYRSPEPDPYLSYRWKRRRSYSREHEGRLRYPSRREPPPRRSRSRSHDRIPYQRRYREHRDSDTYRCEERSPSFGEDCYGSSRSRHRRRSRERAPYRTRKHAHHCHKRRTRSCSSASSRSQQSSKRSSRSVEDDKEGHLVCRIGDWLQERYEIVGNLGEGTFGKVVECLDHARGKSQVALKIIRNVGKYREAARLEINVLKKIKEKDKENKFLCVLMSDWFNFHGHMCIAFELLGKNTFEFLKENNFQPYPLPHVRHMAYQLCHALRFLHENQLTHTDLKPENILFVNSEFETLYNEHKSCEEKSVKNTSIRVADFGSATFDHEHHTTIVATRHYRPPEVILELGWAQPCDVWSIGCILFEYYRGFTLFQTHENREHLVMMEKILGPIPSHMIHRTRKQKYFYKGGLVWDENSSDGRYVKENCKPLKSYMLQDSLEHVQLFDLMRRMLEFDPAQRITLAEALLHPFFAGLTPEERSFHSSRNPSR

What does the source list for `O=C1NC(Nc2ccccc2)=N/C1=C\c1ccc2c(c1)OCO2` [L41]?
IC50 (CDK9/cyclin T): > 10000 nM; IC50 (CLK1): 23 nM; IC50 (CLK3): 1200 nM; half-life ([1]; Tg(Dyrk1a) transgenic and wild-type (wt) mice, plasma): ~45 min; Blood brain barrier crossing ([1]; in vivo): able to cross the blood brain barrier; Differences in pharmacokinetics or biodistribution between transgenic and wt mice ([1]; in vivo): No differences; L41 in brain extracts ([1]; in vivo): essentially undetectable; Time of maximum brain concentration ([1]; in vivo): 20 min; Time to elimination from brain after the maximum brain concentration ([1]; in vivo): 2 h; Recovery in NOR test (Tg(Dyrk1a) mice [2]; 5 days): only marginally; Recovery in NOR test (Tg(Dyrk1a) mice [2]; 12 days): consistently; Recovery in NOR test (Tg(Dyrk1a) mice [2]; 19 days): fully observed; Persistence of NOR rescue (Tg(Dyrk1a) mice [2]; 24 h after the last day of the 19 day treatment): rescuing effect was detectable; Persistence of NOR rescue (Tg(Dyrk1a) mice [2]; 48 h after the last day of the 19 day treatment): no rescue; Effect on working memory (Y-maze) (Tg(Dyrk1a) mice [3]): no restoring effect; Effect on place memory (place object location) (Tg(Dyrk1a) mice [4]): no restoring effect; Tg(Dyrk1a) brain DYRK1A activity (DYRK1A [5]; 24 h after the last treatment of 19 days): normalized to wt levels; Tg(Dyrk1a) brain DYRK1A activity (DYRK1A [5]; 48 h after the last treatment of 19 days): no more effects; DYRK1A inhibition in Tg(Dyrk1a) mice brains (DYRK1A [5]; 5 days of treatment): not significant; Tg(Dyrk1a) brain DYRK1A activity (DYRK1A [5]; 12 days of treatment): normalized; Reduction of brain DYRK1A activity (DYRK1A [5]; 19 days daily i.p., normalized to GSK-3α/β activity): ~30%; Tg(Dyrk1a) brain DYRK1A activity (DYRK1A [5]; 19 days of treatment): normalized; Effect on expression of DYRK1A and GSK-3α/β protein (DYRK1A [6]): no effect

Source: paper PMC6176987, “Correction of cognitive deficits in mouse models of Down syndrome by a pharmacological inhibitor of DYRK1A” (Disease Models & Mechanisms, 2018)
